According to patent US10017507B2, “Diaza-benzofluoranthrene compounds” (HARBIN PHARMACEUTICAL GROUP CO., LTD. GENERAL …, priority 2015, dated 2018):

Molecular target: T1, PDE1A (Homo sapiens, UniProt P54750)
T1 construct: purchased SignalChem
Assay: In vitro detection of phosphodiesterase (PDE): PDE1A enzyme activity by fluorescence polarization immunoassay
Type: biochemical
Settings: human-derived enzyme, cAMP or cGMP substrate; read-out: IC50s for PDE1
Experimental: Test 1: In Vitro Detection of Phosphodiesterase (PDE)
the enzyme activity of PDE1A was determined by detecting the production of AMP/GMP by fluorescence polarization immunoassay, wherein AlexaFluor 633 labeled AMP/GMP was used to replace AMP/GMP to bind with the antibody.
Reaction buffer: 10 mM Tris-HCl, pH 7.5, 5 mM magnesium chloride, 0.01% Brij 35, 1 mM DTT and 1% DMSO;
Enzyme substrate: […] cAMP or cGMP (Ca^2+-calmodulin acts as a cofactor of PDE1A)
Detection reagent: Transcreener® AMP2/GMP2 antibody; AMP2/GMP2 AlexaFluor 633 tracer.
Experimental Procedure and Method:
1. Human-derived enzyme (commercially available from SignalChem) to be tested and substrate were diluted with freshly prepared reaction buffer;
2. The enzyme solution (with a concentration of 3 pM) was added to the holes of the microplates;
3. A series of solutions of the compounds in 100% DMSO (with the desired concentrations) were added to the holes containing the enzyme solution by Echo550, and then the microplates were incubated for 10 minutes at room temperature;
4. The substrate solution was added to the holes containing the enzyme and compounds to start the reaction;
5. The microplates were incubated for 1 hour under room temperature and vibration;
6. The detection mixture (tracer and antibody in stop buffer) was added to stop the enzyme reaction, and the microplates were incubated for 90 minutes under vibration;
7. The equipment EnVision (PerkinElmer), Cy5 FP Ex FP 620, Em S-pol 688/P-pol 688, FP mirror D658fp/D688 was used to detect the reaction mixture, and Ex/Em 620/688 was used to detect the fluorescence polarization.
In the Excel table, the enzyme activity corresponding to the FP signal was found on the AMP/GMP standard curve by reference to the DMSO negative control, and then was converted to product concentration (nM). GraphPad Prism was used to analyze and calculate the IC50 values.

Row | Compound | IC50 [µM]
1 | CC[C@@]12C=C(c3csc(N)n3)n3c4c(c5ccccc53)CCN(CCC1)[C@H]42 [Example 43, 4-((4^1S,13aS)-13a-ethyl-2,3,4^1,5,6,13a-hexahydro-1H-indolo[3,2,1-de]pyrido[3,2,1-ij][1,5]naphthyridin-12-yl)-thiazole-2-amine] | 20 to 100
2 | CCc1noc(C2=C[C@]3(CC)CCCN4CCc5c(n2c2ccccc52)[C@@H]43)n1 [Example 33, 3-ethyl-5-((4^1S,13aS)-13a-ethyl-2,3,4^1,5,6,13a-hexahydro-1H-indolo[3,2,1-de]pyrido[3,2,1-ij][1,5]naphthyridin-12-yl)-1,2,4-oxadiazole] | 1 to 20
3 | CC[C@@]12C=C(C3=N[C@@H](C)CO3)n3c4c(c5ccccc53)CCN(CCC1)[C@H]42 [Example 38, (S)-2-((4^1S,13aS)-13a-ethyl-2,3,4^1,5,6,13a-hexahydro-1H-indolo[3,2,1-de]pyrido[3,2,1-ij][1,5]naphthyridin-12-yl)-4-methyl-4,5-dihydrooxazole] | 20 to 100
4 | CC[C@@]12C=C(c3ncccc3C)n3c4c(c5ccccc53)CCN(CCC1)[C@H]42 [Example 13, (4^1S,13aS)-13a-ethyl-12-(3-methylpyridin-2-yl)-2,3,4^1,5,6,13a-hexahydro-1H-indolo[3,2,1-de]pyrido[3,2,1-ij][1,5]naphthyridine] | 20 to 100
5 | CC[C@@]12C=C(c3cnco3)n3c4c(c5ccccc53)CCN(CCC1)[C@H]42 [Example 4, 5-((4^1S,13aS)-13a-ethyl-2,3,4^1,5,6,13a-hexahydro-1H-indolo[3,2,1-de]pyrido[3,2,1-ij][1,5]naphthyridin-12-yl)oxazole] | 20 to 100
6 | (4^1S,13aS)-13a-ethyl-N-methyl-12-(3-methyl-1,2,4-oxadiazol-5-yl)-2,3,4^1,5,6,13a-hexahydro-1H-indolo[3,2,1-de]pyrido[3,2,1-ij][1,5]naphthyridin-8-sulfonamide [Example 79] | 1 to 20
7 | CC[C@@]12C=C(C(O)C(F)(F)F)n3c4c(c5ccccc53)CCN(CCC1)[C@H]42 (stereo partly drawn) [Example 1, 1-((4^1S,13aS)-13a-ethyl-2,3,4^1,5,6,13a-hexahydro-1H-indolyl[3,2,1-de]pyridyl[3,2,1-ij][1,5]naphthyridine-12-yl)-2,2,2-trifluoroethanol] | > 100
8 | CC[C@@]12C=C(c3nc(C)c(C)s3)n3c4c(c5ccccc53)CCN(CCC1)[C@H]42 [Example 40, 2-((4^1S,13aS)-13a-ethyl-2,3,4^1,5,6,13a-hexahydro-1H-indolo[3,2,1-de]pyrido[3,2,1-ij][1,5]naphthyridin-12-yl)-4,5-dimethylthiazole] | 1 to 20
9 | CC[C@@]12C=C(c3noc(C(C)(C)O)n3)n3c4c(c5ccccc53)CCN(CCC1)[C@H]42 [Example 25, 2-(3-((4^1S,13aS)-13a-ethyl-2,3,4^1,5,6,13a-hexahydro-1H-indolo[3,2,1-de]pyrido[3,2,1-ij][1,5]naphthyridin-12-yl)-1,2,4-oxadiazol-5-yl)propan-2-ol] | 1 to 20
10 | CC[C@@]12C=C(c3nsc(=O)[nH]3)n3c4c(c5ccccc53)CCN(CCC1)[C@H]42 [Example 19, 3-((4^1S,13aS)-13a-ethyl-2,3,4^1,5,6,13a-hexahydro-1H-indolo[3,2,1-de]pyrido[3,2,1-ij][1,5]naphthyridin-12-yl)-1,2,4-thiadiazol-5(4H)-one] | > 100
11 | CC[C@@]12C=C(c3nc(C)ns3)n3c4c(c5ccccc53)CCN(CCC1)[C@H]42 [Example 39, 5-((4^1S,13aS)-13a-ethyl-2,3,4^1,5,6,13a-hexahydro-1H-indolo[3,2,1-de]pyrido[3,2,1-ij][1,5]naphthyridin-12-yl)-3-methyl-1,2,4-thiadiazole] | 1 to 20
12 | CC[C@@]12C=C(c3nc(C(C)C)no3)n3c4c(c5ccccc53)CCN(CCC1)[C@H]42 [Example 34, 5-((4S,13aS)-13a-ethyl-2,3,4^1,5,6,13a-hexahydro-1H-indolo[3,2,1-de]pyrido[3,2,1-ij][1,5]naphthyridin-12-yl)-3-isopropyl-1,2,4-oxadiazole] | 1 to 20
13 | CC[C@@]12C=C(c3nc(-c4ccccc4)no3)n3c4c(c5ccccc53)CCN(CCC1)[C@H]42 [Example 30, 5-((4^1S,13aS)-13a-ethyl-2,3,4^1,5,6,13a-hexahydro-1H-indolo[3,2,1-de]pyrido[3,2,1-ij][1,5]naphthyridin-12-yl)-3-phenyl-1,2,4-oxadiazole] | > 100
14 | CC[C@@]12C=C(c3nccc(C)n3)n3c4c(c5ccccc53)CCN(CCC1)[C@H]42 [Example 8, (4^1S,13aS)-13a-ethyl-12-(4-methylpyrimidin-2-yl)-2,3,4^1,5,6,13a-hexahydro-1H-indolo[3,2,1-de]pyrido[3,2,1-ij][1,5]naphthyridine] | 20 to 100
15 | CC[C@@]12C=C(c3ccno3)n3c4c(c5ccccc53)CCN(CCC1)[C@H]42 [Example 45, 5-((4^1S,13aS)-13a-ethyl-2,3,4^1,5,6,13a-hexahydro-1H-indolo[3,2,1-de]pyrido[3,2,1-ij][1,5]naphthyridin-12-yl)isoxazole] | 20 to 100
16 | CCCC(O)(CCC)C1=C[C@]2(CC)CCCN3CCc4c(n1c1ccccc41)[C@@H]32 [Example 49, 4-((4^1S,13aS)-13a-ethyl-2,3,4^1,5,6,13a-hexahydro-1H-indolo[3,2,1-de]pyrido[3,2,1-ij][1,5]naphthyridin-12-yl) heptan-4-ol] | > 100
17 | CC[C@@]12C=C(c3n[nH]c(=O)o3)n3c4c(c5ccccc53)CCN(CCC1)[C@H]42 [Example 16, 5-((4^1S,13aS)-13a-ethyl-2,3,4^1,5,6,13a-hexahydro-1H-indolo[3,2,1-de]pyrido[3,2,1-ij][1,5]naphthyridin-12-yl)-1,3,4-oxadiazol-2(3H)-one] | 1 to 20
18 | (4^1S,13aS)-13a-ethyl-N-(3-methoxylpropyl)-12-(3-methyl-1,2,4-oxadiazol-5-yl)-2,3,4,5,6,13a-hexahydro-1H-indolo[3,2,1-de]pyrido[3,2,1-ij][1,5]naphthyridin-7-sulfonamide [Example 84] | > 100

Now from value to compound:

Row | IC50 [µM] | Compound
19 | ≤ 1 | CC[C@@]12C=C(c3nc4c(o3)CCCC4)n3c4c(c5ccccc53)CCN(CCC1)[C@H]42 [Example 55, 2-((4^1S,13aS)-13a-ethyl-2,3,4^1,5,6,13a-hexahydro-1H-indolo[3,2,1-de]pyrido[3,2,1-ij][1,5]naphthyridin-12-yl)-4,5,6,7-tetrahydrobenzo[d]oxazole]
20 | ≤ 1 | CC[C@@]12C=C(c3nc(C)c(C(=O)OC)o3)n3c4c(c5ccccc53)CCN(CCC1)[C@H]42 [Example 59, Methyl-2-((4^1S,13aS)-13a-ethyl-2,3,4^1,5,6,13a-hexahydro-1H-indolo[3,2,1-de]pyrido[3,2,1-ij][1,5]naphthyridin-12-yl)-4-methyloxazole-5-carbonate]
21 | 20 to 100 | CC[C@@]12C=C(c3nc(C)c(C)o3)n3c4c(c5cc(S(=O)(=O)NCCCOC)ccc53)CCN(CCC1)[C@H]42 [Example 72, (4^1S,13aS)-12-(4,5-dimethyloxazol-2-yl)-13a-ethyl-N-(3-methoxylpropyl)-2,3,4^1,5,6,13a-hexahydro-1H-indolo[3,2,1-de]pyrido[3,2,1-ij][1,5]naphthyridin-9-sulfonamide]
22 | 1 to 20 | CC[C@@]12C=C(c3nc(C)c(C(C)C)o3)n3c4c(c5ccccc53)CCN(CCC1)[C@H]42 [Example 54, 2-((4^1S,13aS)-13a-ethyl-2,3,4^1,5,6,13a-hexahydro-1H-indolo[3,2,1-de]pyrido[3,2,1-ij][1,5]naphthyridin-12-yl)-5-isopropyl-4-methyloxazole]
23 | ≤ 1 | CCc1nc(C2=C[C@]3(CC)CCCN4CCc5c(n2c2ccccc52)[C@@H]43)oc1C [Example 56, 4-ethyl-2-((4^1S,13aS)-13a-ethyl-2,3,4^1,5,6,13a-hexahydro-1H-indolo[3,2,1-de]pyrido[3,2,1-ij][1,5]naphthyridin-12-yl)-5-methyloxazole]
24 | 1 to 20 | CC[C@@]12C=C(c3ncc(C)o3)n3c4c(c5ccccc53)CCN(CCC1)[C@H]42 [Example 51, 2-((4^1S,13aS)-13a-ethyl-2,3,4^1,5,6,13a-hexahydro-1H-indolo[3,2,1-de]pyrido[3,2,1-ij][1,5]naphthyridin-12-yl)-5-methyloxazole]
25 | ≤ 1 | CC[C@@]12C=C(c3nc(C)c(CO)o3)n3c4c(c5ccccc53)CCN(CCC1)[C@H]42 [Example 61, (2-((4^1S,13aS)-13a-ethyl-2,3,4^1,5,6,13a-hexahydro-1H-indolo[3,2,1-de]pyrido[3,2,1-ij][1,5]naphthyridin-12-yl)-4-methyloxazol-5-yl)methanol]
26 | ≤ 1 | CC[C@@]12C=C(c3nc(C)c(C#N)o3)n3c4c(c5ccccc53)CCN(CCC1)[C@H]42 [Example 63, 2-((4^1S,13aS)-13a-ethyl-2,3,4^1,5,6,13a-hexahydro-1H-indolo[3,2,1-de]pyrido[3,2,1-ij][1,5]naphthyridin-12-yl)-4-methyloxazole-5-carbonitrile]
